Experimental data from patent US7589168B2 (Roskamp Research LLC, priority 2001, dated 2009).
Entries after “also recorded” stand apart in the source; their conditions may differ. Ends that are not written are not given here.

Key:
[1] = test system: human brain endothelial cells; test: Endothelial cell migration assay (modified Boyden chamber, […] invasion chamber); assay type: cell-based; settings: 20 hours, vs untreated cells
Method: Endothelial Cell Migration Assay. Migration of human brain adult endothelial cells was evaluated using a modified Boyden chamber assay (BD BioCoat [sequence] Invasion Chamber), as described (Soker et al. 1998; Nakamura et al. 1997). The cells were plated at 4.10^4/ml onto an 8 μm pore size membrane coated with a thin layer of [sequence] basement membrane matrix. Freshly solubilized Aβ (1 μM and 5 μM) was added to the medium in the outer cup and the cells were cultured for 20 hours. Non-invading cells were removed from the upper surface by using a cotton swab. Membrane inserts were then fixed with 4% paraformaldehyde and stained with the DEAD-RED dye (MOLECULAR PROBE). Cells were observed using a fluorescent microscope. The number of cells, which migrated to the undersurface of the filter, was quantified by counting the cells in randomly selected 3 microscopic fields (10×). Experiments were done in triplicate.

[2] = test system: endothelial cells; test: Toxicity (apoptosis, necrosis) of Aβ in the capillary network assay; assay type: cell-based, human; settings: soluble or aggregated Aβ; data not shown
Method: Although endothelial cells continue to proliferate and form a cobblestone monolayer when plated on untreated tissue culture dishes, culturing on dishes coated with reconstituted basement membrane induces endothelial cells to become quiescent and adopt a three-dimensional capillary-like morphology. Therefore, the effect of Aβ on the capillary-like network formation on […] by endothelial cells isolated from human middle cerebral artery was assessed. […] The potential toxicity of Aβ was investigated in this assay and it was observed that under these culture conditions no apoptosis (as measured by ELISA determining the quantity of cytoplasmic oligonucleosomes) or necrosis (estimated by the release of LDH in the culture medium) of endothelial cells was induced by either soluble or aggregated Aβ (data not shown).

[3] = test system: B16F1 melanoma cells; test: Growth of subcutaneous B16F1 melanoma tumors; assay type: in vivo, C57B16/J mice; settings: cells injected s.c. in medium containing 10 μM freshly dissolved Aβ1-40; 14 days after implantation
Method: Subcutaneous Implantation of B16 Melanoma Cells. C57B16/J mice were purchased from Jackson laboratories at 8 weeks of age. The B16 F1 murine melanoma cell line was purchased from ATCC. Cells were grown in DMEM medium supplemented with 10% fetal calf serum and 1× mixture of antibiotics-fungicide (BIOWHITEKER). […] 100 μl of cell suspension were injected subcutaneously in mice. Fourteen days after the implantation of the cells, mice were euthanized and the tumors dissected and weighted.

[4] = test system: A-549 (human lung adenocarcinoma); test: Nude mouse tumor xenograft model, A-549; assay type: in vivo, nude mice; settings: for tumor growth (tumor volume): vs vehicle control; for tumor vascularization (mean microvessel count per tumor): vs control tumors, 50 mg/kg/day
Method: (§1) Nude mouse tumor xenograft model. […] The tumor volumes were determined by measuring length (l) and width (w) and calculating volume (V=lw^2/2). On the termination day of each in vivo antitumor study, tumors were extracted and fixed in 10% neutral buffered formalin for 6 h. Formalin-fixed paraffin sections were cut at 3 microns and dried overnight at room temperature. Sections were immunostained with rat anti-mouse CD31 ([sequence], San Diego, Calif.) using the avidin peroxidase complex technique as previously described (Blaskovich M. A., et al. Nat. Biotechnol. 18, 1065-1070 (2000)). Briefly, sections were digested with protease XXIV (1 mg/ml in PBS, pH 7.6) for 7 minutes. Endogenous peroxidase was blocked with 3% hydrogen peroxide and non-specific background staining reduced by a 10 min incubation with normal rabbit serum. Sections were incubated for 30 min with rat anti-mouse CD31 at 1:50, for 15 min with biotinylated anti-rat IgG and for 15 min with ABC complex (VECTOR KIT, Burlingame, Calif). NOVARED was used as the chromogen. Slides were counterstained with modified Mayer's hematoxylin using standard histological techniques. For microvessel counting, the five areas of highest tumor neovascularization were microscopically selected using a low-power view. After the areas of highest neovascularization had been identified, individual microvessels were counted on a 400×(40× objective lens and 10× ocular lens) field. Brown-staining endothelial cells or endothelial cell clusters were considered as a single, countable microvessel as previously described (Weidner N. et al. N. Engl. J. Med. 324, 1-8 (1991)). Data from at least forty 400× fields of each tumor type are reported by mean values±SE. Results are expressed as the % of microvessel count standardized against the microvessel count in the control tumors (vehicle only).

[5] = test system: U87-MG (human glioblastoma); test: Nude mouse tumor xenograft model, U87-MG; assay type: in vivo, nude mice
Method: as §1

[6] = test system: bFGF-induced angiogenesis in MATRIGEL plugs; test: In vivo […] plug assay (bFGF-induced angiogenesis); set-up: species or system mice
[7] = test system: human middle cerebral artery rings; test: Human middle cerebral artery ring angiogenesis assay; assay type: cell-based; settings: for microvessel outgrowths: day 9, vs control
[8] = test system: chick chorionic allantoid membrane (CAM); test: Chick chorionic allantoid membrane (CAM) model of angiogenesis; assay type: in vivo; settings: dose range 1 microgram to 250 micrograms, 48 hours
Method: After 48 hours of incubation, CAMs were perfused with colloidal carbon, fixed and photographed.

[9] = test system: neovascularization stimulated by bFGF in the rat cornea; test: Rat corneal model of angiogenesis (bFGF hydron pellets); assay type: in vivo
Source text: Representative flat-mount photomicrographs of rat corneas (original magnification ×100) 7 days after implantation of hydron pellets. […] Angiogenesis indexes are expressed as mean±SE.

[10] = test system: rat aortic rings; test: Ex vivo rat aortic ring angiogenesis assay; assay type: cell-based, Sprague Dawley rats
[11] = test system: cow middle cerebral artery rings; test: Cow middle cerebral artery ring angiogenesis assay; assay type: cell-based; settings: COX-2 inhibition by NS-398; data not shown
[12] = 50 mg/kg/day/tumor intratumorally

For “Aβ: Aβ peptide as worded in the examples; methods and legends indicate Aβ1-40 (toxicity test: soluble or aggregated Aβ1-40 and Aβ1-42)”, the endothelial cell migration ([1]; 1 μM freshly solubilized) was “stimulated endothelial cell migration”, the endothelial cell migration ([1]; 5 μM freshly solubilized) was “significantly suppressed endothelial cells migration” and the “apoptosis of endothelial cells (ELISA, cytoplasmic oligonucleosomes)” value [2] was “no apoptosis”. The “necrosis of endothelial cells (release of LDH in the culture medium)” value [2] was “no”, the “development of tumors (tumor weight)” value [3] was “significantly reduce the development of tumors” and the “tumor growth (tumor volume)” value [4, 12] was “suppression of tumor growth”. The “reduction of tumor microvessel densities” value ([4]; CD31 and factor VIII immunostaining, 50 mg/kg/day/tumor intratumorally) was “approximately 60%”, the tumor growth ([4]; with 10 μM of Aβ peptide) was “complete inhibition of tumor growth” and the “tumor growth (tumor volume)” value ([5]; 50 mg/kg/day/tumor intratumorally, vs vehicle control) was “suppression of tumor growth”. For the same molecule, the “reduction of microvessel densities” value ([5]; CD31 immunostaining, 50 mg/kg/day/tumor intratumorally) was “approximately 50%”, the tumor growth ([5]; with 10 μM of Aβ peptide) was “complete inhibition of tumor growth” and the “total cellular invasion in MATRIGEL plugs” value ([6]; 50 mg/kg/day, Aβ vs scrambled Aβ group, t-test) was “significant difference”. The “angiogenesis in the MATRIGEL plug model” value ([6]; with 2 μM of Aβ peptide) was “inhibition of angiogenesis”.

With “VIGKYHGMSNLVGRSFEVHQGKGAEVDAHGLFDIEAFVDV [scrambled Aβ, having the same amino acids as Aβ1-40 peptide, but in random order]” the microvessel outgrowths ([7]; 1 μM, listed as scramble Aβ1-40) was “absence of pro-angiogenic activity; also recorded: not altered”, the microvessel outgrowths ([7]; 5 μM) was “not altered” and the formation of outgrowths ([7]; scramble peptide, dose not given, 9 days) was “unable to affect the formation of outgrowths”. For the same molecule, the “tumor growth (tumor volume)” value [4, 12] was “did not affect the growth of human lung tumors; also recorded: no difference”, the “tumor vascularization (mean microvessel count per tumor)” value [4, 12] was “no significant difference” and the “tumor vascularization (mean microvessel count per tumor)” value ([4]; 50 mg/kg/day/tumor intratumorally, listed as Aβ scrambled) was “did not impede tumor vascularization”. The “vascular response vs control conditions” value [8] was “no difference in vascular response”, the “neovascularization stimulated by bFGF” value ([9]; after 7 days, hydron pellets) was “displayed no effect” and the “angiogenesis index vs control (bFGF alone)” value ([9]; dose not stated, 7 days) was “no significant difference”. For the same molecule, the “endothelial cell invasion and vessel formation (PECAM-1 immunostaining)” value ([6]; 50 mg/kg/day intraperitoneal, 6 days) was “presence of endothelial cells forming vessels”.

For `CS(=O)(=O)Nc1ccc([N+](=O)[O-])cc1OC1CCCCC1` [NS-398], the microvessel outgrowths ([10]; 20 μM, day 5, vs control) was “displays anti-angiogenic activity; also recorded: effectively inhibited outgrowths”, the “effect on stimulation of microvessel outgrowths by 1 μM Aβ1-40” value ([10]; NS-398 + 1 μM Aβ1-40, day 5) was “able to oppose the pro-angiogenic effect of 1 μM Aβ1-40; also recorded: also inhibited” and the microvessel outgrowths [11] was “partial inhibition of microvessel outgrowths”. The microvessel outgrowths ([7]; NS-398 (20 μM)) was “partially inhibited the microvessel outgrowths; also recorded: anti-angiogenic effect”.
